# From ChEMBL document CHEMBL3885881, “DrugMatrix”
# Species on record: Rattus norvegicus
# Assay: DrugMatrix - Regimen: Daily Repeat
# Type: toxicity, organism-based, Sprague-Dawley
# Set-up: regimen Daily Repeat, gender Male, age 6-8 weeks
# Conditions: in vivo, po, route oral GAVAGE, […]; for ABSOLUTE BASOPHIL / ABSOLUTE EOSINOPHIL / ABSOLUTE LYMPHOCYTE / ABSOLUTE MONOCYTE / ABSOLUTE SEGMENTED NEUTROPHIL / BASOPHIL / EOSINOPHIL / ERYTHROCYTE COUNT / HEMATOCRIT / HEMOGLOBIN / LEUKOCYTE COUNT / LYMPHOCYTE / MEAN CORPUSCULAR HEMOGLOBIN / MEAN CORPUSCULAR HEMOGLOBIN CONCENTRATION / MEAN CORPUSCULAR VOLUME / MONOCYTE / NEUTROPHIL / NUCLEATED RED BLOOD CELLS / PLATELET COUNT: tissue Blood; for ALANINE AMINOTRANSFERASE / ALBUMIN / ALKALINE PHOSPHATASE / ASPARTATE AMINOTRANSFERASE / BLOOD UREA NITROGEN / CARBON DIOXIDE / CHLORIDE / CHOLESTEROL / CREATINE PHOSPHOKINASE / CREATININE / GLUCOSE / LACTATE DEHYDROGENASE / LIPASE / PHOSPHORUS / POTASSIUM / SODIUM / TOTAL BILIRUBIN / TOTAL PROTEIN / URIC ACID: tissue Plasma
# [1] = 10 mg/kg, 120 h, dose level Low, time 5 day
# [2] = 250 mg/kg, 72 h, dose level High, time 3 day
# [3] = 250 mg/kg, 120 h, dose level High, time 5 day
smiles,measurement,setting,value
COc1cc(N)c(Cl)cc1C(=O)NC1CCN(CCCOc2ccc(F)cc2)CC1OC (centres undefined) [CISAPRIDE],ABSOLUTE BASOPHIL,[1],0 CELLS/uL
same,ABSOLUTE EOSINOPHIL,[1],0 CELLS/uL
same,ABSOLUTE LYMPHOCYTE,[1],8665 CELLS/uL
same,ABSOLUTE MONOCYTE,[1],47.33 CELLS/uL
same,ABSOLUTE SEGMENTED NEUTROPHIL,[1],387.67 CELLS/uL
same,BASOPHIL,[1],0%
same,EOSINOPHIL,[1],0%
same,ERYTHROCYTE COUNT,[1],6.01 x10E6/uL
same,HEMATOCRIT,[1],36.43%
same,HEMOGLOBIN,[1],13.9 G/DL
same,LEUKOCYTE COUNT,[1],9.1 x10E3/uL
same,LYMPHOCYTE,[1],94.67%
same,MEAN CORPUSCULAR HEMOGLOBIN,[1],23.2 pg
same,MEAN CORPUSCULAR HEMOGLOBIN CONCENTRATION,[1],38.17 G/DL
same,MEAN CORPUSCULAR VOLUME,[1],60.73 fL
same,MONOCYTE,[1],0.67%
same,NEUTROPHIL,[1],4.67%
same,NUCLEATED RED BLOOD CELLS,[1],0.33 /100WBC
same,PLATELET COUNT,[1],1215.33 x10E3/uL
same,ALANINE AMINOTRANSFERASE,[1],83.67 u/L
same,ALBUMIN,[1],4.23 G/DL
same,ALKALINE PHOSPHATASE,[1],427.67 u/L
same,ASPARTATE AMINOTRANSFERASE,[1],78.33 u/L
same,BLOOD UREA NITROGEN,[1],13.67 mg/dL
same,CARBON DIOXIDE,[1],35 mmol/L
same,CHLORIDE,[1],99.33 MEQ/L
same,CHOLESTEROL,[1],86.33 mg/dL
same,CREATINE PHOSPHOKINASE,[1],161.33 u/L
same,CREATININE,[1],0.16 mg/dL
same,GLUCOSE,[1],163 mg/dL
same,LACTATE DEHYDROGENASE,[1],134.33 u/L
same,LIPASE,[1],11 u/L
same,PHOSPHORUS,[1],9.6 mg/dL
same,POTASSIUM,[1],5.19 MEQ/L
same,SODIUM,[1],143.17 MEQ/L
same,TOTAL BILIRUBIN,[1],0.17 mg/dL
same,TOTAL PROTEIN,[1],6.1 G/DL
same,URIC ACID,[1],0.37 mg/dL
same,ABSOLUTE BASOPHIL,[2],0 CELLS/uL
same,ABSOLUTE EOSINOPHIL,[2],36.33 CELLS/uL
same,ABSOLUTE LYMPHOCYTE,[2],10590.67 CELLS/uL
same,ABSOLUTE MONOCYTE,[2],0 CELLS/uL
same,ABSOLUTE SEGMENTED NEUTROPHIL,[2],573 CELLS/uL
same,BASOPHIL,[2],0%
same,EOSINOPHIL,[2],0.33%
same,ERYTHROCYTE COUNT,[2],5.39 x10E6/uL
same,HEMATOCRIT,[2],32.73%
same,HEMOGLOBIN,[2],13.17 G/DL
same,LEUKOCYTE COUNT,[2],11.2 x10E3/uL
same,LYMPHOCYTE,[2],94.67%
same,MEAN CORPUSCULAR HEMOGLOBIN,[2],24.43 pg
same,MEAN CORPUSCULAR HEMOGLOBIN CONCENTRATION,[2],40.2 G/DL
same,MEAN CORPUSCULAR VOLUME,[2],60.73 fL
same,MONOCYTE,[2],0%
same,NEUTROPHIL,[2],5%
same,NUCLEATED RED BLOOD CELLS,[2],0 /100WBC
same,PLATELET COUNT,[2],918 x10E3/uL
same,ALANINE AMINOTRANSFERASE,[2],102.67 u/L
same,ALBUMIN,[2],3.83 G/DL
same,ALKALINE PHOSPHATASE,[2],517.33 u/L
same,ASPARTATE AMINOTRANSFERASE,[2],96 u/L
same,BLOOD UREA NITROGEN,[2],13 mg/dL
same,CARBON DIOXIDE,[2],26 mmol/L
same,CHLORIDE,[2],95 MEQ/L
same,CHOLESTEROL,[2],89.67 mg/dL
same,CREATINE PHOSPHOKINASE,[2],253 u/L
same,CREATININE,[2],0.15 mg/dL
same,GLUCOSE,[2],137.33 mg/dL
same,LACTATE DEHYDROGENASE,[2],118.33 u/L
same,LIPASE,[2],12.33 u/L
same,PHOSPHORUS,[2],10.77 mg/dL
same,POTASSIUM,[2],5.65 MEQ/L
same,SODIUM,[2],138.1 MEQ/L
same,TOTAL BILIRUBIN,[2],0.17 mg/dL
same,TOTAL PROTEIN,[2],5.5 G/DL
same,URIC ACID,[2],0.6 mg/dL
same,ABSOLUTE BASOPHIL,[3],0 CELLS/uL
same,ABSOLUTE EOSINOPHIL,[3],43.33 CELLS/uL
same,ABSOLUTE LYMPHOCYTE,[3],8832 CELLS/uL
same,ABSOLUTE MONOCYTE,[3],95.67 CELLS/uL
same,ABSOLUTE SEGMENTED NEUTROPHIL,[3],595.67 CELLS/uL
same,BASOPHIL,[3],0%
same,EOSINOPHIL,[3],0.33%
same,ERYTHROCYTE COUNT,[3],5.74 x10E6/uL
same,HEMATOCRIT,[3],35.13%
same,HEMOGLOBIN,[3],13.57 G/DL
same,LEUKOCYTE COUNT,[3],9.57 x10E3/uL
same,LYMPHOCYTE,[3],92%
same,MEAN CORPUSCULAR HEMOGLOBIN,[3],23.67 pg
same,MEAN CORPUSCULAR HEMOGLOBIN CONCENTRATION,[3],38.63 G/DL
same,MEAN CORPUSCULAR VOLUME,[3],61.23 fL
same,MONOCYTE,[3],1%
same,NEUTROPHIL,[3],6.67%
same,NUCLEATED RED BLOOD CELLS,[3],0.67 /100WBC
same,PLATELET COUNT,[3],1240.33 x10E3/uL
same,ALANINE AMINOTRANSFERASE,[3],89 u/L
same,ALBUMIN,[3],3.93 G/DL
same,ALKALINE PHOSPHATASE,[3],342 u/L
same,ASPARTATE AMINOTRANSFERASE,[3],87.67 u/L
same,BLOOD UREA NITROGEN,[3],14.67 mg/dL
same,CARBON DIOXIDE,[3],34 mmol/L
same,CHLORIDE,[3],99.5 MEQ/L
same,CHOLESTEROL,[3],78.33 mg/dL
same,CREATINE PHOSPHOKINASE,[3],245 u/L
same,CREATININE,[3],0.15 mg/dL
same,GLUCOSE,[3],170.67 mg/dL
same,LACTATE DEHYDROGENASE,[3],145 u/L
same,LIPASE,[3],12.67 u/L
same,PHOSPHORUS,[3],10.53 mg/dL
same,POTASSIUM,[3],5.47 MEQ/L
same,SODIUM,[3],141.95 MEQ/L
same,TOTAL BILIRUBIN,[3],0.17 mg/dL
same,TOTAL PROTEIN,[3],5.57 G/DL
same,URIC ACID,[3],0.67 mg/dL
